# Experimental data from patent publication US20230203055A1, “FUSED RING COMPOUND AND APPLICATION THEREOF IN MEDICINE” (Betta Pharmaceuticals Co., LTD, priority 2020, published 2023).
# Read-outs that look alike come from different tables or passages of the source.
# Legend:
# [1] = test system: H358 cells; assay: Detection of cell proliferation inhibition, H358 (Cell-titer Glo, 96 h); format: cell-based
# Procedure: H358 cells were plated in 96-well ultra-low adsorption plates at 2000 cells and 190 µL/well. After overnight incubation, compound solutions of gradient concentrations were prepared, and 10 µL of the DMSO solution of each concentration of the compound to be tested was added to the cells in each well. Compound final concentrations were 10000, 3333.3, 1111.1, 370.4, 123.5, 41.2, 13.7, 4.6, 1.5, 0 nM (all final concentrations of DMSO were 0.25%). Incubate at 37° C., 5% CO2 for 96 h. Add 50 µL of Cell-titer Glo working solution to each well, incubate at room temperature for 10 min after shaking and mixing, read the Luminescence luminescence value with a multi-function microplate reader, and convert the luminescence value reading into the inhibition percentage:
# Percent Inhibition = (Max-Reading)/(Max-Min)* 100. • “Max” is the DMSO control, • “Min” is the cell-free control.
# Curve fitting was performed with Graphpad Prism software and IC50 values were obtained. See Table 1 for IC50 data on H358 cell inhibition by example compounds.
# [2] = test system: MIA PaCa-2 cells; assay: Detection of cell proliferation inhibition, MIA PaCa-2 (Cell-titer Glo, 96 h); format: cell-based
# Procedure: MIA PaCa-2 cells were plated in a 96-well ultra-low adsorption plate at 600 cells and 160 µL/well. After overnight incubation, compound solutions with gradient concentrations were prepared, and 40 µL of DMSO solutions of the compounds to be tested were added to each well of cells respectively. Compound final concentrations were 10000, 2000, 400, 80, 16, 3.2, 0.64, 0.12, 0.025, 0 nM (all final concentrations of DMSO were 0.25%). Incubate at 37° C., 5% CO2 for 96 h. Add 50 µL of Cell-titer Glo working solution to each well, shake and mix well, incubate at room temperature for 10 min, read the Luminescence luminescence value with a multi-function microplate reader, and convert the luminescence value reading into inhibition percentage: Percent Inhibition = (Max-Reading)/(Max-Min)* 100. • “Max” is the DMSO control; • “Min” is the cell-free control.
# Curve fitting was performed with Graphpad Prism software and IC50 values were obtained. See Table 1for IC50 data for the inhibition of MIA PaCa-2 cells by the compounds of the examples.
# [3] = Homo sapiens, NCI-H358, read-out: IC50 (nM) H358
# [4] = Homo sapiens, read-out: IC50 (nM) MIA PaCa-2
IC50 ([1]; read-out: IC50 (nM) H358),IC50 ([2]; read-out: IC50 (nM) MIA PaCa-2),"IC50 [1, 3]","IC50 [2, 4]","IC50 ([2]; Homo sapiens, read-out: IC50 MIA PaCa-2)",Structure (SMILES)
–,–,< 50 nM,< 50 nM,–,"C=CC(=O)N1CCN(c2nc(=O)n(-c3c(C)ccnc3C(C)C)c3c4c(c(Cl)cc23)-c2c(F)cccc2CO4)C2CC21 (stereo not shown) [Example 33, 1-(5-Acryloyl-2,5-Diazabicyclo [4.1.0] Heptan-2-yl)-11-Chloro-10-Fluoro-4-(2-Isopropyl-4-Methylpyridin-3-yl)-4H-Isochromeno[4,3-h]Quinazolin-3(6H)-One]"
–,–,3180 nM,–,> 2000 nM,"C=CC(=O)N1CCN(c2nc(=O)n(-c3c(C)ccnc3C(C)C)c3c(F)c4c(cc23)OCc2cccc(OC)c2-4)[C@@H](C)C1 [Example 12, (S)-8-(Acryloyl-2-Methylpiperazin-1-yl)-12-Fluoro-1-Methoxy-11-(2-Isopropyl-4-Methylpyridin-3-yl)-5H-Isochromene[3,4-g] Quinazolin-10(11H)-One]"
–,–,< 50 nM,< 50 nM,–,"C=CC(=O)N1CCN(c2nc(=O)n(-c3c(C)ccnc3C(C)C)c3c4c(c(Cl)cc23)-c2c(F)cccc2CCO4)[C@@H](C)C1 [Example 19, 10-((S)-4-Acryloyl-2-Methylpiperazin-1-yl)-8-Chloro-7-Fluoro-13-(2-Isopropyl-4-Methylpyridin-3-yl)-2,3-Dihydrobenzo[4,5]oxa[3,2-h]Quinazo1in-12(13H)-One]"
295 nM,122 nM,–,–,–,C=CC(=O)N1CCN(c2nc(=O)n(-c3c(C)ccnc3C(C)C)c3c(F)c4c(cc23)OCc2ccccc2-4)[C@@H](C)C1 [Example 2]
–,–,< 50 nM,< 50 nM,–,"C=CC(=O)N1CCN(c2nc(=O)n(-c3c(C)ccnc3C(C)C)c3c4c(c(Cl)cc23)-c2c(ccc(F)c2F)CO4)[C@@H](C)C1 [Example 18, (S)-1-(4-Acryloyl-2-Methylpiperazin-1-yl)-11-Chloro-9,10-Difluoro-4-(2-Isopropyl-4-Methylpyridin-3-yl)-4H-Isochromene[4,3-h] Quinazolin-3(6H)-One]"

# More lines, now with the values behind:
Structure (SMILES),IC50 ([1]; read-out: IC50 (nM) H358),IC50 ([2]; read-out: IC50 (nM) MIA PaCa-2),"IC50 [1, 3]","IC50 [2, 4]","IC50 ([2]; Homo sapiens, read-out: IC50 MIA PaCa-2)"
"C=CC(=O)N1CCN(c2nc(=O)n(-c3c(C)ccnc3C(C)C)c3c4c(c(C=C)cc23)-c2c(F)cccc2CO4)[C@@H](C)C1 [Example 14, (S)-1-(4-Acryloyl-2-Methylpiperazin-1-yl)-10-Fluoro-4-(2-Isopropyl-4-Methylpyridine-3-yl)-11-Vinyl-4H-Isochromene[4,3-h] Quinazolin-3(6H)-One]",< 50 nM,< 50 nM,–,–,–
"C=CC(=O)N1CCN(c2nc(=O)n(-c3c(C)ccnc3C(C)C)c3c(F)c4c(cc23)OCc2ccc3ccccc3c2-4)[C@@H](C)C1 [Example 22, (S)-10-(4-Acryloyl-2-Methylpiperazin-1-yl)-14-Fluoro-13-(2-Isopropyl-4-Methylpyridine-3-yl)-7H-Benzo[5,6] Isochromene[3,4-g]Quinazolin-12(13H)-One]",–,–,3740 nM,2500 nM,–
"C=CC(=O)N1CCN(c2nc(=O)n(-c3c(C)ccnc3C(C)C)c3c4c(c(Cl)cc23)-c2cccnc2CO4)[C@@H](C)C1 [Example 20, (S)-7-(4-Acryloyl-2-Methylpiperazin-1-yl)-5-Chloro-10-(2-Isopropyl-4-Methylpyridine-3-yl)-10H Pyridin[3’,2’:4,5] Pyrano[3,2-h]Quinazolin-9(12H)-One]",–,–,62.6 nM,64.2 nM,–
"C=CC(=O)N1CCN(c2nc(=O)n(-c3c(C)ccnc3C(C)C)c3c4c(c(Cl)cc23)-c2c(ccc(F)c2F)CCO4)[C@@H](C)C1 [Example 30, 10-((S)-4-Acryloyl-2-Methylpiperazin-1-yl)-8-Chloro-6,7-Difluoro-13-(2-Isopropyl-4-Methylpyridin-3-yl)-2,3-Dihydrobenzo[4,5] Oxa[3,2-h]Quinazolin-12(13H)-One]",–,–,< 50 nM,< 50 nM,–
C=CC(=O)N1CCN(c2nc(=O)n(-c3c(C)ccnc3C(C)C)c3c4c(c(Cl)cc23)-c2c(F)ccc(O)c2CO4)[C@@H](C)C1 [Example 28],–,–,95 nM,85 nM,–
C=CC(=O)N1CCN(c2nc(=O)n(-c3c(C)ccnc3C(C)C)c3c4c(c(F)cc23)-c2ccccc2CO4)[C@@H](C)C1 [Example 1],491 nM,90.2 nM,–,–,–
"C=CC(=O)N1CCN(c2nc(=O)n(-c3c(C)ccnc3C(C)C)c3c(F)c4c(cc23)OCc2ccc(F)c(F)c2-4)[C@@H](C)C1 [Example 17, (S)-8-(4-Acryloyl-2-Methylpiperazin-1-yl)-1,2,12-Trifluoro-11-(2-Isopropyl-4 -Methylpyridin-3-yl)-5H Isochromene[3,4-g] Quinazolin-10(11H)-One]",–,–,274 nM,317 nM,–
C=CC(=O)N1CCN(c2nc(=O)n(-c3c(C)ccnc3C(C)C)c3c4c(c(Cl)cc23)-c2c(F)ccc(F)c2CO4)[C@@H](C)C1 [Example 29],–,–,< 50 nM,< 50 nM,–
"C=CC(=O)N1CCN(c2nc(=O)n(-c3c(C)ccnc3C(C)C)c3c4c(c(Cl)cc23)-c2c(F)cccc2CO4)[C@@H](C)C1 [Example 13, (S)-1-(4-Acryloyl-2-Methylpiperazin-1-yl)-11-Chloro-10-Fluoro-4-(2-Isopropyl-4-Methylpyridin-3-yl)-4H-Isochromene[4,3-h] Quinazolin-3(6H)-One]",< 50 nM,< 50 nM,–,–,–
